Read-outs that look alike come from different tables or passages of the source.
Assays:
male SD rats [1] = test: Ulcer forming activity; format: in vivo; conditions: oral 10 mg/kg once daily for 5 days; 10 rats per group; stomach ulcers observed after 24 hours fasting
Method: The test compounds were orally administered to male SD rats, 10 per a group, at the dosage of 10 mg/kg, once daily for 5 days. After the final administration, rats were fasted for 24 hours and killed by blood releasing under ether anesthesia. The stomachs were taken out and the presence of ulcers were observed.
The same experiments were done with control compounds, E-5110 [Arznein Forsch. Drug Res., 37, 930 (1987), ibid, 37, 936 (1987)] abd diclofenac.

male SD rats [2] = test: Carageenin induced paw edema; format: in vivo; conditions: oral, 1 hour before carageenin, paw volume 3 hours after carageenin, suppression of edema forming rate
Method: The test compounds were orally administered to male SD rats, 10 per a group, which were fasted for 24 hours prior to the administration, and after one hour, 0.1 ml of 1% λ-carageenin (Picnin A, Zushi Chemical Co., Ltd.) in saline was injected subcutaneously into the right hind paw. The paw volumes were measured plethysmographically at before and 3 hours after the carageenin administration. Defining the paw volume before the injection of the λ-carageenin as the basal volume, the edema forming rates were calculated by the following equation. Edma Forming Rate(%) =((Paw volume after carageenin injection) - (Paw volume before carageenin injection))/(Paw volume before carageenin injection)x 100 [formula]
Compounds shown in the examples 1 -3 and 5 were tested and diclofenac was used as controls.

[3] = system: bronchis of Hartle guinea pigs; test: Dilating action of bronchia by Schultz-dale reaction
Method: The specimens were prepared by removing the bronchis of Hartle guinea pigs after sensitizing them with egg white albumin and terminating them by blood releasing under ether anesthesia. Each specimen was hanged down in the Magnus vessel filled with Tyrode's solution (saturated with gas composed of 95% oxygen and 5% carbon dioxide by bubbling at pH 7.4 and at […]). A tension of 1g was loaded to the specimen. After the tension became constant, histamine was added to the final concentration of 2 x 10⁻⁷ g/ml to cause the specimen to contract. The specimen was taken out from the vessel, washed thoroughly and hanged down in a different Magnus vessel filled with egg white albumin, of which final concentration was 1 x 10⁻⁵ g/ml, to cause the specimen to contract. […] As a control, theophylline in 0.1% dimethylsulphoxide aqueous solution was used. The efficacy of the test compounds was described by the suppression rate, in percentage, calculated from the contraction value obtained after the addition of the test compound, defining the contraction value caused by the egg white albumin before the addition of the test compound as 100 %.

SD rats = test: Repeated administration toxicity in SD rats; format: in vivo; conditions: 500 mg/kg, repeatedly for 2 weeks
Text: Theophylline is known to have high toxicity and its LD₅₀ is about […] in rat. […]

[4] = Scavenging activity of hydroxy radicals (linolenic acid peroxidation, absorbance at 234 nm); format: biochemical; conditions: test compound concentration 10 µM
Method: Scavenging activity of hydroxy radicals were confirmed according to the method of Kharasch et al. [J. Biol. Chem., 260, 106452 (1985)]. The method is as follows. The reactions were started by adding 80 µM iron chloride (II) to the reaction mixture containing test compounds, 30 mM sodium chloride, 1.0 mM linolenic acid, 0.08% rubrol and 100 µM hydrogen peroxide in 1% N,N-dimethylformamide aqueous solution. The time course of peroxidation reaction caused by the action of hydroxy radicals to linolenic acid were monitored by measuring the change of absorbance at 234 nm reflecting the generation of conjugate double bond, and thus the disappearance of the hydroxy radicals by test compounds was measured. The reaction suppression rates of test compounds at their concentration of 10 µM were calculated and the values are listed in Table 5 below.

male mongolian gerbils = test: Brain edema (carotid artery occlusion and re-perfusion); format: in vivo; conditions: 2 mg/kg intraperitoneally 15 minutes before occlusion; 3 hours ischemia, 3 hours re-perfusion; 6 per group
Method: The total left carotid artery of male mongolian gerbils were separated from surrounding tissues and exposed under the Halosen anesthesia, and when awakened from the anesthesia, the total left carotid arteries were occuled by a aneurysm forming clip. […] The next day, the total left caroted artery of the selected animals, 6 per a group, were re-exposed under the Halosen anesthesia, and when these animals were awakened, the test compounds were administered intraperitoneally (2 mg/kg), followed by occluding the left total carotid artery by a aneurysm forming clip 15 minutes after the administration. After 3 hours ischemla, the clips were removed to re-perfusion. The animals were guillotined at 3 hours after the re-perfusion, immediately followed by removing out the brains, separated their left and right parts at its median line and measured each brain weights. The brains were dried in the dry heat sterilizer at 100°C for 3 days, and measured each brain weights.
Here, for the comparison, experiments with only surgical operations and stitchings were done as a operation only group, and experiments with only surgical operations, clip blockigs and stitchings and without the administration of the test compounds were done as a control group.

rat = conditions: cited from earlier work

SMILES | Ulcer Cases (male SD rats [1]) | IC50 ([3]; Cavia porcellus) | Suppression Rate (%) (male SD rats [2]; dose 2 mg/kg) | Suppression Rate (%) [4] | further results
O=C(O)Cc1ccccc1Nc1c(Cl)cccc1Cl [Diclofenac, reference compound] | 2/10 | – | – | – | Suppression Rate (%) (male SD rats [2]; dose 10 mg/kg): 51%
CN1C(=O)C(=Cc2cc(C(C)(C)C)c(O)c(C(C)(C)C)c2)C(=O)N(c2ccccc2)C1=O [Example 1, 1-methyl-3-phenyl-5-(3,5-di-tert-butyl-4-hydroxybenzylidene)-pyrimidine-2,4,6-trione] | 0/10 | 50 µM | 48% | 59% | abnormal symptoms (SD rats): no abnormal symptoms were observed
CCN1C(=O)C(=Cc2cc(C(C)(C)C)c(O)c(C(C)(C)C)c2)C(=O)N(CC)C1=O [Example 2, 1,3-diethyl-5-(3,5-di-tert-butyl-4-hydroxybenzylidene)-pyrimidine-2,4,6-trione] | – | 67 µM | 32% | 15% | –
CC(C)(C)c1cc(C=C2C(=O)N(C3CCCCC3)C(=O)N(C3CCCCC3)C2=O)cc(C(C)(C)C)c1O [Example 3, 1,3-dicyclohexyl-5-(3,5-di-tert-butyl-4-hydroxybenzylidene)-pyrimidine-2,4,6-trione] | 1/10 | 57 µM | 11% | – | –
CCCCN1C(=O)NC(=O)C(=Cc2cc(C(C)(C)C)c(O)c(C(C)(C)C)c2)C1=O [Example 4, 1-butyl-5-(3,5-di-tert-butyl-4-hydroxybenzylidene)-pyrimidine-2,4,6-trione] | 0/10 | 43 µM | – | 18% | –
CC(C)(C)c1cc(C=C2C(=O)NC(=O)N(C3CCCCC3)C2=O)cc(C(C)(C)C)c1O [Example 5, 1-cyclohexyl-5-(3,5-di-tert-butyl-4-hydroxybenzylidene)-pyrimidine-2,4,6-trione] | 0/10 | 59 µM | 24% | 31% | –
CC(C)(C)c1cc(C=C2C(=O)NC(=O)N(c3ccccc3)C2=O)cc(C(C)(C)C)c1O [Example 6, 1-phenyl-5-(3,5-di-tert-butyl-4-hydroxybeniylidene)-pyrimidine-2,4,6-trione] | 0/10 | – | – | 25% | IC50 ([3]; suppression of egg white albumin (1 x 10⁻⁵ g/ml) induced contraction of sensitized guinea pig bronchi, read-out: IC50): 44 µM
Cc1ccc(N2C(=O)C(=Cc3cc(C(C)(C)C)c(O)c(C(C)(C)C)c3)C(=O)N(c3ccc(C)cc3)C2=O)cc1 [Example 7, 1,3-di-p-tolyl-5-(3,5-di-tert-butyl-4-hydroxybenzylidene)-pyrimidine-2,4,6-trione] | – | 39 µM | – | 60% | water contents, Normal Side (male mongolian gerbils): 79.64 ± 0.09; water contents, Occlusion Side (male mongolian gerbils): 79.94 ± 0.33
CON1CC/C(=C\c2cc(C(C)(C)C)c(O)c(C(C)(C)C)c2)C1=O [Example E-5110, reference compound] | 3/10 | – | – | – | –
Cn1c(=O)c2[nH]cnc2n(C)c1=O [Theophylline, reference compound] | – | – | – | – | IC50 ([3]; Cavia porcellus, suppression of egg white albumin (1 x 10⁻⁵ g/ml) induced contraction of sensitized guinea pig bronchi, read-out: IC50): 35 µM; LD₅₀ (rat): about 300 mixing
